Test results published in the Deep4Chem optical property database.

Experiment: photoluminescence quantum yield (fraction); solvent given as SMILES

Compound: O=P1(c2ccccc2)C(c2cc(C(F)(F)F)cc(C(F)(F)F)c2)=Cc2c3ccc4cccc5ccc(c6cc(-c7ccc(N(c8ccccc8)c8ccccc8)cc7)n1c26)c3c45 (stereo not drawn)
- photoluminescence quantum yield (in C1CCCCC1): 0.44
- photoluminescence quantum yield (in C1CCOC1): 0.17
- photoluminescence quantum yield (in C1COCCO1): 0.48
- photoluminescence quantum yield (in CC#N): 0.004
- photoluminescence quantum yield (in CC(C)=O): 0.11
- photoluminescence quantum yield (in CO): 0.004
- photoluminescence quantum yield (in Cc1ccccc1): 0.49
- photoluminescence quantum yield (in ClC(Cl)Cl): 0.49
- photoluminescence quantum yield (in ClCCl): 0.23

Compound: CC(C)(C)c1ccc2oc(-c3ccc(-c4nc5cc(C(C)(C)C)ccc5o4)s3)nc2c1
- photoluminescence quantum yield (in C1CCCCC1): 0.8
- photoluminescence quantum yield (in C1CCOC1): 0.78
- photoluminescence quantum yield (in CC1CCCCC1): 0.66
- photoluminescence quantum yield (in CC#N): 0.76
- photoluminescence quantum yield (in CCCCO): 1
- photoluminescence quantum yield (in CCO): 1
- photoluminescence quantum yield (in CN(C)C=O): 0.87
- photoluminescence quantum yield (in Cc1ccccc1): 1
- photoluminescence quantum yield (in Clc1ccccc1Cl): 0.96
- photoluminescence quantum yield (in c1ccccc1): 0.82

Compound: O=CC1=C(c2ccc(-c3cccs3)s2)CCC1
- photoluminescence quantum yield (in CCO): 0.02

Compound: CCN(CC)c1ccc2c(c1)oc(=O)c1cnc3c(cnn3-c3ccccc3)c12
- photoluminescence quantum yield (in C1CCCCC1): 0.926
- photoluminescence quantum yield (in CCOC(C)=O): 0.885
- photoluminescence quantum yield (in CN(C)C=O): 0.296
- photoluminescence quantum yield (in CO): 0.222
- photoluminescence quantum yield (in ClCCl): 0.916

Compound: C1=[N+]2N=C(c3ccccc3)O[B-]2(c2ccc([B-]34OC(c5ccccc5)=N[N+]3=Cc3c(ccc5ccccc35)O4)cc2)Oc2ccc3ccccc3c21 (stereo not drawn)
- photoluminescence quantum yield (in C1CCOC1): 0.002

Compound: O=c1oc2ccccc2c2c1c(=O)oc1cc(O)cc(O)c12
- photoluminescence quantum yield (in ClCCl): 0.1

Compound: c1ccc(N(c2ccccc2)c2ccc(-c3cncs3)cc2)cc1
- photoluminescence quantum yield (in CO): 0.53

Compound: C(=C\c1ccc(N(c2ccccc2)c2ccccc2)cc1)/c1ccc(/C=C/c2ccc(N(c3ccccc3)c3ccccc3)cc2)cc1
- photoluminescence quantum yield (in Cc1ccccc1): 0.82

Compound: CN(C)c1ccc(C2=Nc3scc(-c4ccccc4)[n+]3[B-](F)(F)O2)cc1
- photoluminescence quantum yield (in C1CCOC1): 0.75
- photoluminescence quantum yield (in CC#N): 0.08
- photoluminescence quantum yield (in Cc1ccccc1): 0.94
- photoluminescence quantum yield (in ClCCl): 0.89

Compound: O=CN1N=C(c2ccc(Br)cc2)C[C@@H]1c1ccccc1
- photoluminescence quantum yield (in C1CCCCC1): 0.25
- photoluminescence quantum yield (in C1COCCO1): 0.25
- photoluminescence quantum yield (in CC#N): 0.14
- photoluminescence quantum yield (in CCO): 0.13
- photoluminescence quantum yield (in CCOC(C)=O): 0.18
- photoluminescence quantum yield (in CO): 0.05
- photoluminescence quantum yield (in CS(C)=O): 0.11
- photoluminescence quantum yield (in Cc1ccccc1): 0.01
- photoluminescence quantum yield (in ClC(Cl)(Cl)Cl): 0.02

Compound: N#Cc1nn(-c2ccc(F)cc2)nc1N1CCCC1
- photoluminescence quantum yield (in CC#N): 0.683

Compound: CC(C)(C)c1cc(-c2cc3nc4c5ccc(N6c7ccccc7Oc7ccccc76)cc5c5cc(N6c7ccccc7Oc7ccccc76)ccc5c4nc3cc2-c2cc(C(C)(C)C)cc(C(C)(C)C)c2)cc(C(C)(C)C)c1
- photoluminescence quantum yield (in c1ccc2c(c1)c1ccccc1n2-c1ccc(-c2ccc(-n3c4ccccc4c4ccccc43)cc2)cc1): 0.83

Compound: CC(=O)n1cc(/C=C/c2ccc([N+](=O)[O-])cc2)c2ccccc21
- photoluminescence quantum yield (in CC#N): 0.045
- photoluminescence quantum yield (in CCCCCCC): 0.008
- photoluminescence quantum yield (in CO): 0.002
- photoluminescence quantum yield (in O): 0.003

Compound: CCn1c2ccccc2c2ccc(-c3ccc(OC)cc3)cc21
- photoluminescence quantum yield (in C1CCCCC1): 0.22

Compound: CC(C)(C)C#Cc1ccc2c3cccc4cccc(c5cccc1c52)c43
- photoluminescence quantum yield (in C1CCCCC1): 0.91

Compound: CCn1c2ccccc2sc2c(C#N)c3[nH]c4ccccc4sc3c(C#N)c21
- photoluminescence quantum yield (in ClC(Cl)Cl): 0.32

Compound: CCOC(=O)c1ccc(C2CC(c3cccc4ccccc34)=NN2c2ccc(C#N)cc2)cc1 (stereo not drawn)
- photoluminescence quantum yield (in ClCCl): 0.258

Compound: CCOC(=O)CN(CC(=O)OCC)c1ccc(-c2cc(-c3ccncc3)nc(-c3ccncc3)c2)cc1
- photoluminescence quantum yield (in CC#N): 0.3
- photoluminescence quantum yield (in CCOC(C)=O): 0.48
- photoluminescence quantum yield (in CN(C)C=O): 0.2
- photoluminescence quantum yield (in CS(C)=O): 0.23
- photoluminescence quantum yield (in c1ccccc1): 0.5

Compound: CCCCCOc1cc2oc(=O)c3c4ccc(N(c5ccc(C)cc5)c5ccc(C)cc5)cc4c4ccc5cccc6c(c1)c2c3c4c56
- photoluminescence quantum yield (in C1CCOC1): 0.53

Compound: CCC1=C(C)C2=C(c3cc(C(=O)Cl)cc(C(=O)Cl)c3)c3c(C)c(CC)c(C)n3[B-](F)(F)[N+]2=C1C
- photoluminescence quantum yield (in C1CCOC1): 0.61
- photoluminescence quantum yield (in CC#N): 0.22
- photoluminescence quantum yield (in CN(C)C=O): 0.39
- photoluminescence quantum yield (in Cc1ccccc1): 0.57
- photoluminescence quantum yield (in ClC(Cl)Cl): 0.53
